Measured values published in publication PMC11582565, “Allostery can convert binding free energies into concerted domain motions in enzymes” (Nature Communications, 2024).

Tests used:
Type in all cases: binding
[1] = biological target: T1, adenylate kinase (AK_2+, AK) (Escherichia coli, UniProt P69441); test: single-molecule nanopore (ClyA-AS) recording, Hill fit of LID-closed fraction; settings: minor component; type II blockades (12 ± 6% of blockades, alternative conformer); Hill coefficient 1.7; 400 mM KCl, 15 mM Tris, 2 mM MgCl2, pH 7.5, 22 °C, -90 mV
T1 construct: gene adk; full-length AK (214 residues) with C-terminal extension GKK plus Strep-tag WSHPQFEK kept; pET22b, E. coli BL21(DE3); single enzyme trapped in ClyA-AS nanopore

[2] = biological target: T1, adenylate kinase (AK_2+, AK); test: as above
[3] = biological target: T1, adenylate kinase (AK_2+, AK); test: single-molecule nanopore (ClyA-AS) recording, ligand-induced current levels M1-M4; settings: inhibitor; added cis or trans; 400 mM KCl, 15 mM Tris, 2 mM MgCl2, pH 7.5, 22 °C, -90 mV

T1 sequence (P69441 whole entry): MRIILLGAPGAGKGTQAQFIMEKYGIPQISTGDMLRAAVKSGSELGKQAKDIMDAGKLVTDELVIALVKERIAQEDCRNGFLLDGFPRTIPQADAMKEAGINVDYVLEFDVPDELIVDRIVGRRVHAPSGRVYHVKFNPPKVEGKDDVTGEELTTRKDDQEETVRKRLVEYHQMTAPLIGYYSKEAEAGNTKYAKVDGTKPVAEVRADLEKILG

KD [1] [µM] | Kd [2] [µM] | SMILES | single-molecule nanopore (ClyA-AS) recording, ligand-induced current levels M1-M [3]
123.2 ± 18.1 | 45.4 ± 1.6 | Nc1ncnc2c1ncn2[C@@H]1O[C@H](COP(=O)(O)OP(=O)(O)O)[C@@H](O)[C@H]1O [ADP] | 
 |  | Nc1ncnc2c1ncn2[C@@H]1O[C@H](COP(=O)(O)OP(=O)(O)OP(=O)(O)OP(=O)(O)OP(=O)(O)OC[C@H]2O[C@@H](n3cnc4c(N)ncnc43)[C@H](O)[C@@H]2O)[C@@H](O)[C@H]1O [Ap5A, P^1,P^5-Di-(adenosine-5’)-pentaphosphate] | The addition of Ap5A to either the cis or trans side of the nanopore induced
